According to patent US20210252159A1, “CONJUGATES OF CARTILAGE-HOMING PEPTIDES” (priority 2018, published 2021):

Columns and labels:
[1] = Rat CIA biodistribution study (QWBA); assay type: in vivo; settings: CIA rats
Description: 50 uCi, 400 nmol of each compound was given intravenously (IV) through the tail vein and allowed to circulate 1 hour, 3 hours, or 24 hours. Rats were euthanized by CO2 asphyxiation, shaved, and frozen in dry ice chilled hexane. QWBA was performed and quantified as described.
Frozen carcasses were allowed to off gas hexane overnight at −20° and then embedded in chilled 2% carboxymethylcellulose (Sigma Aldrich) and sectioned sagittally at a thickness of 40 μm on an H/I Bright 8250 Cryostat (Hacker Instruments). Radioactive control guides were drilled into each block to verify even cutting depth along the length of the section. […]
(§1) Quantification of the radioactivity detected in WBA samples was evaluated by measuring the pixel density/mm^2 (“SI”: Signal Intensity/Area−background) using AIDA Image Analyzer v 5.1 Whole Body Autoradiography Professional software (Raytest). […] For quantification, all visible knee or IVD (intervertebral disc) tissues for one rodent across all collected sections were measured and averaged together to generate one knee or IVD value per animal. […] To collect quantified values for other tissues, ROIs were drawn around blood in the heart ventricle, spinotrapezius muscle, the liver, or the kidney (including cortex and medulla) in all sections in which the tissue was observed and then averaged to yield one value per tissue per animal. […]

[2] = Comparison of joint retention time among radiolabeled peptides (QWBA, knee and IVD); assay type: in vivo; design: Peptide Signal Retention in Knee / Peptide Signal Retention in IVD: unit not given here
Description: Frozen carcasses were allowed to off gas hexane overnight at −20° and then embedded in chilled 2% carboxymethylcellulose (Sigma Aldrich) and sectioned sagittally at a thickness of 40 μm on an H/I Bright 8250 Cryostat (Hacker Instruments). Radioactive control guides were drilled into each block to verify even cutting depth along the length of the section. The radioactive guide consisted of ^14C-Glycine (American Radiolabeled Chemicals, “ARC”) at 0.5 uCi/ml in 0.5% BSA (Sigma Aldrich) in PBS. Sections were collected onto 4-inch wide tape (Scotch 821, ULINE) at 2-4 depths to sample approximately 30 tissues with particular focus on the knees and spine. Collected sections were freeze dried in the cryostat for 48-72 hours then mounted on sturdy paper and covered with a single protective layer of cellophane (Reynolds Food Service Film). Mounted sections were exposed to phosphor imager plates (Raytest) along with a radioactive standard Curve (1465-PL, ARC) for 7-days, scanned on a Raytest CR-35 at “25 μm sensitive” setting.
Quantification of the radioactivity detected in WBA samples was evaluated by measuring the pixel density/mm^2 (“SI”: Signal Intensity/Area−background) using AIDA Image Analyzer v 5.1 Whole Body Autoradiography Professional software (Raytest). Regions of interest (ROIs) were drawn manually around the entire visible tissue, comparing the sectioned sample to the autoradiogram. For quantification, all visible knee or IVD (intervertebral disc) tissues for one rodent across all collected sections were measured and averaged together to generate one knee or IVD value per animal. Typically were sampled 1-2 knee values (from femoral and tibial cartilage) per 1-2 sections per animal and 3-10 IVD per 1-2 sections per animal. To collect quantified values for other tissues, ROIs were drawn around blood in the heart ventricle, spinotrapezius muscle, the liver, or the kidney (including cortex and medulla) in all sections in which the tissue was observed and then averaged to yield one value per tissue per animal.
Data were presented as nmol of compound per gram of tissue. The commercial standard strips co-exposed with each WBA sample set were calibrated so that a known amount of radioactive counts per minute (CPM) per gram of tissue, determined by liquid scintillation counting (LSC), corresponded to the measured WBA SI at 11 standard strip concentration data points. The regression line of the log 10 transformed WBA signal intensity plotted against the log 10 transformed CPM/g gave a linear range of 1×10^5 to 7.5×10^7 WBA SI, corresponding to 6.3 nCi/g to 3.3 μCi/g. The log 10 concentration of radioactivity in each tissue (CPM/g) was interpolated from the standard curve, converted to linear values, and translated from CPM/g to uCi/g by interpolation against an LSC CPM to μCi standard curve. Uptake (nmol of compound/g of tissue) was determined by dividing the μCi/g tissue by the μCi/nmol specific activity of the peptide.
Peptide(SEQ ID NO: 105) was dosed at 57-60 nmol. Peptide(SEQ ID NO: 103) was dosed at 130 nmol. Peptide(SEQ ID NO: 184) was dosed at 150 nmol. […] It should be noted that detection of retention is based on an assay that detects radiolabeling of the N-terminus of each of the tested conjugates, thus decrease in signal over time may be due not only to peptide diffusion back out of the cartilage but also aminopeptidase-mediated removal of N-terminal amino acid, general peptide cleavage, or other mechanisms. Results as measured by QWBA methods described herein are shown in Tables 6 and 7 below and FIG. 11.

[3] = Immunohistochemistry of knee and ankle sections with anti-peptide(SEQ ID NO: 105) and anti-Dex antibodies; assay type: in vivo, C57/Bl6 mice; settings: mice, 100 nmol IV, three hours
From the text: Immunohistochemistry methods were developed to detect peptide(SEQ ID NO: 105) and dexamethasone in cartilage of joints using a generated rabbit polyclonal anti-peptide(SEQ ID NO: 105) antibody and a commercially available anti-Dex antibody (Abcam, ab35000). Standard immunization methods were used to generate the anti-peptide(SEQ ID NO: 105) polyclonal antibody, which increases the immunogenicity of the dosed material and are not representative of potential immunogenicity of the unmodified peptide or therapeutic candidate molecules. To produce the immunogen for peptide(SEQ ID NO: 105) antibody generation, peptide(SEQ ID NO: 105) was conjugated to keyhole limpet hemocyanin (KLH) using ImjectTMmcKLH. Peptide(SEQ ID NO: 105)-KLH was administered as part of a pool of other KLH-conjugated peptides emulsified with Freund's complete adjuvant and administered to New Zealand White Rabbits following a standard schedule. The polyclonal antibody was purified from the serum using a HiTrap® mAb Select cartridge (GE Healthcare). Western blot was used to confirm antibody binding to the peptide. […]

[4] = Resistance to chemical reduction (50 mM DTT, LC-MS); assay type: physicochemical; settings: 50 mM DTT for 60 minutes at room temperature
Description: The synthetically produced peptides were then analyzed side-by-side with peptides produced in the recombinant expression system as described above in EXAMPLE 1.

[5] = Biodistribution in mice of stable peptide-TAA conjugate by whole body autoradiography (QWBA); assay type: in vivo; settings: 100 nmol IV, 3 hours and 24 hours
Description: Peptide(SEQ ID NO: 105)-^14C-Cys-TAA (38, the radiolabeled conjugate prepared in EXAMPLE 7) (“peptide(SEQ ID NO: 105)-^14C-Cys” is disclosed as SEQ ID NO: 512) or ^14C-Cys-TAA was resuspended in 5% DMSO in water. The amount of radioactivity per μ1 of solution was measured using liquid scintillation counting (LSC). Each compound was administered intravenously to mice at a dose of 12.4 μCi (100 nmol) and allowed to circulate for the designated time intervals. The mice were then humanely euthanized and carcasses were frozen in dry ice chilled hexane. QWBA was performed and quantified as described. […]
as §1

GSGVPINVRCRGSRDCLDPCRRAGMRFGRCINSRCHCTP [peptide(SEQ ID NO: 105)]
accumulation in other tissues of the body ([1]; 400 nmol IV, 1, 3, 24 hrs, except liver and kidney): minimal accumulation
signal in cartilage (whole body autoradiography) ([1]; 400 nmol IV, 1 hr, 3 hrs, 24 hrs): signal can be detected
Peptide Signal Retention in IVD ([2]; 0.08 Hours): 44.42
Peptide Signal Retention in Knee ([2]; 0.08 Hours): 91.00
Peptide Signal Retention in IVD ([2]; 0.5 Hours): 101.41
Peptide Signal Retention in Knee ([2]; 0.5 Hours): 102.49
Peptide Signal Retention in IVD ([2]; 1 Hours): 100.00
Peptide Signal Retention in Knee ([2]; 1 Hours): 100.00
Peptide Signal Retention in IVD ([2]; 3 Hours): 106.39
Peptide Signal Retention in Knee ([2]; 3 Hours): 72.64
Peptide Signal Retention in IVD ([2]; 8 Hours): 81.45
Peptide Signal Retention in Knee ([2]; 8 Hours): 42.42
Peptide Signal Retention in IVD ([2]; 24 Hours): 36.89
Peptide Signal Retention in Knee ([2]; 24 Hours): 22.61
Peptide Signal Retention in IVD ([2]; 48 Hours): 19.96
Peptide Signal Retention in Knee ([2]; 48 Hours): 9.73
Peptide Signal Retention in IVD ([2]; 72 Hours): 13.43
Peptide Signal Retention in Knee ([2]; 72 Hours): 8.76
Peptide Signal Retention in IVD ([2]; 96 Hours): 9.17
Peptide Signal Retention in Knee ([2]; 96 Hours): 5.05
Immunostaining with anti-peptide(SEQ ID NO: 105) antibody in articular cartilage and growth plates of knee joint sections [3]: strong positive staining
resistance to chemical reduction [4]: very little formation of a new peak

^14C-Cys-triamicinolone acetonide [^14C-Cys-TAA, reference compound]
signal in cartilage (whole body autoradiography) [5]: no observable signal
